According to US11453701B2, “Tau aggregation peptide inhibitors” (ADRX, INC., priority 2017, dated 2022):
Values joined by “and” are separate entries in the source; they are usually repeats but may differ in a detail not shown here. Equal values may be shown once. Square brackets hold non-standard residues; d marks the D form. Peptide text beside a SMILES is read from it.

Biological target: T1, Tau40 P301L protein (Homo sapiens, UniProt P10636, P618L)
T1 construct: His (N); made in house; host or cells: E. coli BL21
Test: Thioflavin T assay of Tau40 amyloid inhibition (Tau40 assay)
Format: biochemical
Details: Thioflavin T fluorescence, Tau40 P301L 2.5 μM, 10 μM heparin

T1 sequence (P10636 1-441 isoform P10636-8 P301L): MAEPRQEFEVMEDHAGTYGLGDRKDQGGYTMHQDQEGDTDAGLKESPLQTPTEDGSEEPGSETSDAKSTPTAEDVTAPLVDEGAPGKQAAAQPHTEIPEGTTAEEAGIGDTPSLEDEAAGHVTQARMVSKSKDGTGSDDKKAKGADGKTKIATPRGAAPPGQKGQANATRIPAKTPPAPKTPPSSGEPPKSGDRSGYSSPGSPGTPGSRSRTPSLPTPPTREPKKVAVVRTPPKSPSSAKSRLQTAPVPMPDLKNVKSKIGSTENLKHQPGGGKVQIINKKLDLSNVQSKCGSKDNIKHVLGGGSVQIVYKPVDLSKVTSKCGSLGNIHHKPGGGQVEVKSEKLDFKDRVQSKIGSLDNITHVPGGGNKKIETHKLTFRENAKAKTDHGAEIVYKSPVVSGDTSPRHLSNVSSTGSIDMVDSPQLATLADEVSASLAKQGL

- IC50: 1710 nM and 1760 nM
Structure (SMILES): CC[C@@H](C)[C@@H](NC(=O)[C@@H](Cc1c[nH]cn1)NC(=O)[C@@H](CC(C)C)NC(=O)[C@@H](CCCCN)NC(=O)[C@H](N)Cc1ccccc1)C(=O)N[C@H](CCCNC(=N)N)C(=O)N[C@H](Cc1c[nH]cn1)C(=O)N[C@H](Cc1c[nH]c2ccccc12)C(=O)O [compound 128] (H-[dF][dK][dL][dH][dI][dR][dH][dW]-OH; N-terminus and C-terminus assumed)
